Consider one molecule from ChEMBL document CHEMBL1146594, “The leupyrrins: a structurally unique family of secondary metabolites from the myxobacterium Sorangium cellulosum” (J Nat Prod, 2003).

The MIC is the smallest concentration in the dilution series that meets the test's criterion for growth inhibition. High values mean a less susceptible organism, low ones a more susceptible organism. The IC50 is the concentration that inhibits the measured activity by half. Higher therefore signals weaker potency in that assay.

The structures appear in SMILES notation. In brackets after ≈: the same amount, converted by molar mass. Activity calls are given as the source filed them.

For assay [1], the system named is Rhodotorula glutinis. Put plainly: Inhibition of RNA synthesis in Rhodotorula glutinis assessed as inhibition of [2-14C]uracil incorporation at 2.5 ug/mL after 30 mins. The assay is classed as functional, organism-based.
The test system of assay [2] is Rhodotorula glutinis. Put plainly: Inhibition of DNA synthesis in Rhodotorula glutinis assessed as inhibition of [methyl-3H]thymine incorporation at 2.5 ug/mL after 30 mins. The assay is classed as functional, organism-based.
Assay [3] relates to Rhodotorula glutinis. Put plainly: Inhibition of protein synthesis in Rhodotorula glutinis assessed as inhibition of [U-14C]protein hydrolysate incorporation at 2.5 ug/mL after 30 mins. Format: functional, organism-based.
Assay [4] has as its system Aspergillus niger. Put plainly: Antifungal activity against Aspergillus niger. Format: functional.
Assay [5] has as its system Botrytis cinerea. Put plainly: Antifungal activity against Botrytis cinerea. The assay is classed as functional.
Assay [6] deals with L929. Put plainly: Cytotoxicity against mouse L929 cells. The assay is classed as cell-based.
The test system of assay [7] is Mucor hiemalis. Put plainly: Antifungal activity against Mucor hiemalis. Format: functional.
For assay [8], the system named is Candida albicans. Put plainly: Antifungal activity against Candida albicans. Format: functional.
In assay [9] the test system is Rhodotorula glutinis. Put plainly: Antifungal activity against Rhodotorula glutinis. The assay is classed as functional.

For `COCCC/C(C)=C1\COC(CC(C)C)\C1=C/C1N=C2OC1COC(=O)[C@@H](CC(C)C)CC(=O)OC1C(OC(=O)C1(C)CO)/C(C)=C/Cc1ccc2[nH]1` (some centres undefined) [LEUPYRRIN A1], the outcome in assay [1], in assay [2] and in assay [3] was Active. Also, the MIC in assay [4] was 0.8 µg/mL (≈ 1.08 µM); in assay [5], 0.8 µg/mL (≈ 1.08 µM); in assay [7] it was 0.3 µg/mL (≈ 0.406 µM); in [8] it was > 25 µg/mL; in [9], 0.25 µg/mL (≈ 0.338 µM). The molecule further yielded a half-maximal inhibitory concentration (IC50) in assay [6] of 1 µg/mL (≈ 1.35 µM).
